The target of one assay is T1, HMG-CoA reductase (Rattus norvegicus, UniProt P51639).
T1 construct: rat liver microsomal suspensions, freshly prepared from male Sprague-Dawley rats; from tissue; host or cells: liver microsomes of male Sprague-Dawley rats
T1 sequence (P51639 1-887): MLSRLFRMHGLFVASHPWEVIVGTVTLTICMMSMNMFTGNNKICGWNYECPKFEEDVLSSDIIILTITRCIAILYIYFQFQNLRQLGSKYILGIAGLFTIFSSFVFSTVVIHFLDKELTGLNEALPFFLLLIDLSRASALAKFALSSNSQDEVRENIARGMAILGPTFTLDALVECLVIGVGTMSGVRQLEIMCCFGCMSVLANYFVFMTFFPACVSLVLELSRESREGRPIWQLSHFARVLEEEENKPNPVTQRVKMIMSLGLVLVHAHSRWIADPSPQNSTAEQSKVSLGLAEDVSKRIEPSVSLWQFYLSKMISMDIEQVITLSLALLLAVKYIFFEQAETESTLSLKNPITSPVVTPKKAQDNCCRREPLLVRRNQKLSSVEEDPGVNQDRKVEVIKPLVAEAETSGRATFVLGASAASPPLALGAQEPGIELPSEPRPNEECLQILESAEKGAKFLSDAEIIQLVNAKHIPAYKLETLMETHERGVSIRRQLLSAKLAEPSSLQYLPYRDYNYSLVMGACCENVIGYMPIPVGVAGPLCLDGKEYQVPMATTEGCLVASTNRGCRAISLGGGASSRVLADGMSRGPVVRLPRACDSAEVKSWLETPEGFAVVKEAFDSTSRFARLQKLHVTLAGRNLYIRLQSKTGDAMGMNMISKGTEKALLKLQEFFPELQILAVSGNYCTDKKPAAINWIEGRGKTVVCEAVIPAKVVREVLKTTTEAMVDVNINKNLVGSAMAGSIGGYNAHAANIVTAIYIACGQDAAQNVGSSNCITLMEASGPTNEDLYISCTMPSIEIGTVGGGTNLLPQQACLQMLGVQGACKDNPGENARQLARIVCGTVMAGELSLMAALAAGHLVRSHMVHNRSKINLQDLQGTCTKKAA
Put plainly: Test A: In Vitro Microsomal Assay of HMG-CoA Reductase Inhibition. The format is biochemical. Particulars: rat liver microsomes, read-out: IC50 (50% inhibition of HMG-CoA reductase activity). As for the experimental part:
Test A. In Vitro Microsomal Assay of HMG-CoA Reductase Inhibition:
200 μl. aliquots (1.08-1.50 mg./ml.) of rat liver microsomal suspensions, freshly prepared from male Sprague-Dawley rats (150-225 g. body weight), in Buffer A with 10 mmol. dithiothreitol are incubated with 10 μl. of a solution of the test substance dissolved in dimethylacetamide and assayed for HMG-CoA reductase activity as described by Ackerman et al., J. Lipid Res. 18, 408-413 (1977), the concentration of the test substance in the assay system being 0.01-2,000 μmolar. In the assay the microsomes are the source of the HMG-CoA reductase enzyme which catalyzes the reduction of HMG-CoA to mevalonate. The assay employs a chloroform extraction to separate the product, [^14 C]-mevalonolactone, formed by the HMG-CoA reductase reaction from the substrate, [^14 C]HMG-CoA. [^3 H]mevalonolactone is added as an internal reference. Inhibition of HMG-CoA reductase is calculated from the decrease in specific activity [^14 C/^3 H]mevalonate) of test groups compared to controls.
IC50 is the concentration of the test substance in the assay system observed or calculated to produce a 50% inhibition of HMG-CoA reductase activity (Test A) or sterol biosynthesis (Test B).

Assay [1] concerns sterol biosynthesis in Fu5AH rat hepatoma cell line. Kind of assay: Test B: In Vitro Cell Culture Cholesterol Biosynthesis Screen. Format: cell-based. Particulars: Fu5AH rat hepatoma cells, [14C]acetate, 3 hours, read-out: IC50 (50% inhibition of sterol biosynthesis). As for the experimental part:
Test B. In Vitro Cell Culture Cholesterol Biosynthesis Screen:
The cell culture is prepared as follows: Stock monolayer cultures of the Fu5AH rat hepatoma cell line (originally obtained from G. Rothblat; see Rothblat, Lipids 9, 526-535 (1974) are routinely maintained in Eagle's Minimum Essential Medium (EMEM) supplemented with 10% fetal bovine serum (FBS) in 75 cm^2. tissue culture flasks. For these studies, when the cultures reach confluence, they are removed by mild enzymatic treatment with 0.25% trypsin in Hank's balanced salt solution (without calcium and magnesium). After centrifugation of the cell suspension and aspiration of the enzymatic solution, the cell pellet is resuspended in an appropriate volume of media for seeding into 60 mm. tissue culture dishes. The cultures are incubated at 37° C. in an atmosphere of high humidity and 5% carbon dioxide. When the cultures are confluent (approximately 5 days), they are ready for use. The culture media is aspirated from the dishes and replaced with 3 ml. of EMEM supplemented with 5 mg./ml. of delipidized serum protein (DLSP) prepared by the method of Rothblat et al., In Vitro 12, 554-447 (1976). […] Enhanced 3-hydroxy-3-methylglutaryl Coenzyme A reductase (HMG-CoA reductase) activity is measurable in the cells in response to the lack of exogenous sterol. Following approximately 24 hours incubation at 37° C. in the DLSP supplemented media, the assay is initiated by the addition of 3 μCi of [^14 C]acetate and the test substances solubilized in dimethylsulfoxide (DMSO) or distilled water. Solvent controls and compactin-treated controls are always prepared. Triplicate 60 mm. tissue culture dishes are run for each group. After 3 hours incubation at 37° C., the cultures are examined microscopically using an inverted phase contrast microscope. Notations are made of any morphological changes which may have occurred in the cultures. The media is aspirated and the cell layer is gently washed twice with 0.9% sodium chloride solution (saline). The cell layer is then harvested in 3 ml. of 0.9% saline by gentle scraping with a rubber policeman and transferred to a clean glass tube with Teflon lined cap. The dishes are rinsed with 3 ml. of 0.9% saline and rescraped, and the cells are combined with the first harvest. The tubes are centrifuged at 1500 r.p.m. for 10 minutes in an IEC PR-J centrifuge, and the supernatant is aspirated.
The cells are then extracted as follows: One ml. of 100% ethanol is added to the cell pellet followed by sonication for 10 seconds with a "LO" setting of 50 on a Bronwell Biosonik IV. One hundred μl. are taken for protein determination. One ml. of 15% potassium hydroxide (KOH) is added, and the samples are thoroughly vortexed. Saponification is accomplished by heating the ethanol-KOH treated samples at 60° C. for 60 minutes in a water bath. Following dilution of the samples with 2 ml. of distilled water, they are extracted three times with 7 ml. of petroleum ether. The petroleum ether extracts are then washed three times with 2 ml. of distilled water and finally taken to dryness under a stream of nitrogen.
The obtained samples are then analyzed by thin layer chromatography (TLC) as follows: Residues from the petroleum ether extraction are taken up in a small volume of hexane and spotted on silica gel 60 TLC plates (E. Merck). Development of the plates is carried out in a three phase solvent system consisting of 150 parts by volume hexane: 50 parts by volume diethyl ether: 5 parts by volume glacial acetic acid. Visualization is accomplished in an iodine vapor chamber. The plates are divided into five sections such that each section contains the molecules having the following approximate Rf value: section 1-0-0.4, section 12-0.4-0.55, section 3-0.55-0.7, section 4-0.7-0.9 and section 5-0.9-1.0. Section 2 contains the non-saponifiable sterols. The five sections of the TLC plates are scraped into scintillation vials. […]

The subject of assay [2] is 3β-hydroxysterol synthesis. Put plainly: Test C: In Vivo Cholesterol Biosynthesis Inhibition Test. Further details: species or system rat (male Wistar Royal Hart). Particulars: for ED50: Rattus norvegicus, read-out: ED50 (50% inhibition of 3β-hydroxysterol synthesis).
Method: Test C. In Vivo Cholesterol Biosynthesis Inhibition Test:
In vivo studies utilize male Wistar Royal Hart rats weighing 150±20 g. which have been kept for 7-10 days on an altered light cycle (6:30 A.M.-6.30 P.M. dark) housed two per cage and fed powdered Purina Rat Chow and water ad libitum. Three hours before the diurnal maximum of cholesterol synthesis at mid-dark, the rats are administered the test substances dissolved or as a suspension in 0.5% carboxymethylcellulose in a volume of 1 ml./100 g. body weight. Controls receive vehicle alone. One hour after receiving the test substance, the rats are injected intraperitoneally with about 25 μCi/100 g. body weight of sodium [1-^14 C]acetate 1-3 mCi/mmol. Two hours after mid-dark, blood samples are obtained under sodium hexobarbitol anesthesia, and the serum separated by centrifugation. (The dosage of the test substance is 0.01-200 mg./kg. body weight.)
The [^14 C]digitonides are then counted by liquid scintillation spectrometry. After correcting for efficiencies, the results are calculated in nCi (nanocuries) of sterol formed per 100 ml. of serum. Inhibition of sterol synthesis is calculated from the reduction in the nCi of sterols formed from test groups compared to controls.
The ED50 is the dose of the test substances observed or calculated to produce a 50% inhibition of 3β-hydroxysterol synthesis.
[3] abbreviates: Test C, male Wistar Royal Hart rats.

Like-named read-outs stand apart in the source and are kept apart here.

As a reminder, the IC50 is the concentration that inhibits the measured activity by half. As a reminder, the ED50 is the midpoint of the dose-response relation. For the molecule `CC[C@H](C)C(=O)O[C@H]1CCC=C2C=C[C@H](C)[C@H](CC[C@@H]3C[C@@H](O)CC(=O)O3)[C@H]21` [Compactin, reference compound], the 50% inhibitory concentration (IC50) at HMG-CoA reductase came to 0.94 µM; in assay [1] it was 0.08 µM. For the same molecule, the median effective dose (ED50) in assay [2] (setting [3]) amounted to 3.5 mg/kg. In the case of `C[C@@H]1C=C[C@H](C)[C@H](c2ccc(F)cc2)[C@H]1/C=C/C1CC(O)CC(=O)O1` (stereo partly drawn) [Example 3, (E)-6-[2'-(2"α,5"α-Dimethyl-6"α-(4'"-fluorophenyl)cyclohex-3"-en-1"βS-yl)ethenyl]-4-hydroxy-3,4,5,6-tetrahydro-2H-pyran-2-one], the half-maximal inhibitory concentration (IC50) at HMG-CoA reductase is 8.13 µM; in assay [1] it was 1.2 µM. Moreover, the ED50 in assay [2] (setting [3]) worked out at 2.4 mg/kg. On to `C[C@@H]1C=C[C@H](C)[C@H](c2ccc(F)cc2)[C@H]1/C=C/[C@@H]1C[C@@H](O)CC(=O)O1` [Example 3A, (E)-Trans-6S-[2'-(2"α,5"α-Dimethyl-6"α-(4'"-fluorophenyl)cyclohex-3"-en-1"βS-yl)ethenyl]-4R-hydroxy-3,4,5,6-tetrahydro-2H-pyran-2-one], for which, at HMG-CoA reductase, the IC50 was determined as 3.23 µM. Take `C[C@@H]1C=C[C@H](C)[C@H](c2ccc(F)cc2)[C@H]1/C=C/C(O)CC(O)CC(=O)O` (stereo partly drawn) [Example 5, Sodium (E)-3,5-dihydroxy-7-[2'α,5'α-dimethyl-6'α-(4"-fluorophenyl)cyclohex-3'-en-1'βS-yl]hept-6-enoate]: the IC50 on HMG-CoA reductase was determined as 1.19 µM; in assay [1], 0.6 µM. For the same molecule, the ED50 in assay [2] (setting [3]) is 2.07 mg/kg. Turning to `C[C@@H]1C=C[C@H](C)[C@H](c2ccc(F)cc2)[C@H]1/C=C/[C@@H](O)C[C@@H](O)CC(=O)O` [Example 5A, Sodium (E)-3R,5S-dihydroxy-7-[2'α,5'α-dimethyl-6'α-(4"-fluorophenyl)cyclohex-3'-en-1'βS-yl]hept-6-enoate], the IC50 at HMG-CoA reductase is 0.54 µM. Still for that read-out and setting: the value for `CCOC(=O)CC(O)CC(O)/C=C/[C@@H]1[C@@H](c2cccc3ccccc23)[C@@H](C)C=C[C@H]1C` (stereo partly drawn) [Example 6, Ethyl (E)-3,5-dihydroxy-7-(2'α,5'α-dimethyl-6'α-naphth-1"-ylcyclohex-3'-en-1'βS-yl)hept-6-enoate] was 5.57 µM; that for `O=C1CC(O)CC(/C=C/[C@H]2CC=CC[C@@H]2c2ccccc2)O1` (stereo partly drawn) [Example 67B] was 1370 µM. With `O=C1CC(O)CC(/C=C/[C@@H]2CC=CC[C@H]2c2ccc(Cl)cc2)O1` (stereo partly drawn) [Example 73], at HMG-CoA reductase, the IC50 is 450 µM. Turning to `C[C@@H]1C=C[C@H](C)[C@@H](/C=C/C2CC(O)CC(=O)O2)[C@@H]1c1ccc(F)cc1` (stereo partly drawn) [Example 74], the IC50 worked out at 116 µM on HMG-CoA reductase and 5.8 µM in assay [1]. The ED50 in assay [2] (setting [3]) was 20 mg/kg. For the molecule `C[C@@H]1C=C[C@H](C)[C@H](c2ccccc2)[C@H]1/C=C/C1CC(O)CC(=O)O1` (stereo partly drawn) [Example 79], the IC50 on HMG-CoA reductase was found to be 29 µM; in assay [1] it was 4.8 µM. Moreover, the “change in 3β-hydroxysterol synthesis” value in assay [2] (Test C, male Wistar Royal Hart rats, at 5.9 mg./kg.) was -62%. On to `C[C@@H]1CC[C@H](C)[C@H](c2ccc(F)cc2)[C@H]1CCC(O)CC(O)CC(=O)O` (stereo partly drawn) [Example 85], for which the IC50 at HMG-CoA reductase was 7.2 µM.

On to `CCOC(=O)CC(O)CC(O)/C=C/[C@@H]1[C@@H](c2ccc(F)cc2)[C@H](C)CC[C@H]1C(C)C` (stereo partly drawn) [Example 86], for which the IC50 stood at 141 µM on HMG-CoA reductase and 5.4 µM in assay [1]. Take `CC[C@H](C)C(=O)O[C@H]1C[C@@H](C)C=C2C=C[C@H](C)[C@H](CC[C@@H]3C[C@@H](O)CC(=O)O3)[C@H]21` [Mevinolin, reference compound]: the ED50 in assay [2] came to 0.41 mg/kg.

The values are drawn from US4876280A, “Arylcyclohexane and arylcyclohexene analogs of mevalonolactone derivatives and their use” (Sandoz Pharm. Corp., priority 1988, dated 1989).
